Experimental data as given in ChEMBL document CHEMBL3885861, “Open TG-GATES”.

Species: Rattus norvegicus
Assay: Open TG-GATES - Regimen: Single
Assay type: toxicity, organism-based, Sprague-Dawley
Set-up: regimen Single, gender Male, age 6 weeks
Conditions: in vivo, po, route gavage; for APTT / Bas / Eos / Fbg / Hb / Ht / Lym / MCH / MCHC / MCV / Mono / Neu / PT / Plat / RBC / Ret / WBC: tissue Blood; for KIDNEY_L / KIDNEY_R / KIDNEY_TOTAL: tissue Kidney; for LIVER: tissue Liver; for A/G / ALP / ALT / AST / BUN / CRE / Ca / Cl / DBIL / GLC / IP / K / LDH / Na / PL / RALB / TBIL / TC / TG / TP / gamma-GTP: tissue Plasma
[1] = 100 mg/kg, 3 h, dose level Middle
[2] = 100 mg/kg, 6 h, dose level Middle
[3] = 100 mg/kg, 9 h, dose level Middle
[4] = 100 mg/kg, 24 h, dose level Middle
[5] = 300 mg/kg, 3 h, dose level High
[6] = 300 mg/kg, 6 h, dose level High
[7] = 300 mg/kg, 9 h, dose level High
[8] = 300 mg/kg, 24 h, dose level High

## Cc1ccc(C)c(OCCCC(C)(C)C(=O)O)c1 [GEMFIBROZIL]
[1]
  TERMINAL_BW: 221.2 g
  APTT: 15.4 s
  Bas: 0%
  Eos: 0.8%
  Fbg: 283.2 mg/dL
  Hb: 13.4 g/dL
  Ht: 39.6%
  Lym: 78.2%
  MCH: 21.5 pg
  MCHC: 33.8%
  MCV: 63.4 fL
  Mono: 3.2%
  Neu: 17.4%
  PT: 12.4 s
  Plat: 116.9 x10_4/uL
  RBC: 624.4 x10_4/ul
  Ret: 7.2%
  WBC: 76.9 x10_2/uL
  KIDNEY_L: 1 g
  KIDNEY_R: 1 g
  KIDNEY_TOTAL: 1.9 g
  LIVER: 9.4 g
  A/G: 0.8
  ALP: 1811 IU/L
  ALT: 47.8 IU/L
  AST: 80.8 IU/L
  BUN: 11.8 mg/dL
  CRE: 0.2 mg/dL
  Ca: 11.4 mg/dL
  Cl: 104.8 meq/L
  DBIL: 0.068 mg/dL
  GLC: 177 mg/dL
  IP: 10.2 mg/dL
  K: 4.3 meq/L
  LDH: 68.8 IU/L
  Na: 140.6 meq/L
  PL: 174.2 mg/dL
  RALB: 2.5 g/dL
  TBIL: 0.072 mg/dL
  TC: 88 mg/dL
  TG: 155.6 mg/dL
  TP: 5.5 g/dL
  gamma-GTP: 1.2 IU/L
[2]
  TERMINAL_BW: 224.5 g
  APTT: 14.9 s
  Bas: 0%
  Eos: 0.8%
  Fbg: 297 mg/dL
  Hb: 13.9 g/dL
  Ht: 40.4%
  Lym: 76.2%
  MCH: 21.1 pg
  MCHC: 34.4%
  MCV: 61.2 fL
  Mono: 2.8%
  Neu: 19.4%
  PT: 12 s
  Plat: 124.5 x10_4/uL
  RBC: 659.6 x10_4/ul
  Ret: 7.6%
  WBC: 87.8 x10_2/uL
  KIDNEY_L: 0.9 g
  KIDNEY_R: 0.9 g
  KIDNEY_TOTAL: 1.9 g
  LIVER: 8.7 g
  A/G: 0.9
  ALP: 1550.4 IU/L
  ALT: 42.4 IU/L
  AST: 69.6 IU/L
  BUN: 9.8 mg/dL
  CRE: 0.2 mg/dL
  Ca: 11.3 mg/dL
  Cl: 107.2 meq/L
  DBIL: 0.072 mg/dL
  GLC: 181.2 mg/dL
  IP: 10.7 mg/dL
  K: 4.2 meq/L
  LDH: 61.2 IU/L
  Na: 142 meq/L
  PL: 158.2 mg/dL
  RALB: 2.7 g/dL
  TBIL: 0.056 mg/dL
  TC: 83.4 mg/dL
  TG: 89.2 mg/dL
  TP: 5.5 g/dL
  gamma-GTP: 1 IU/L
[3]
  TERMINAL_BW: 221.6 g
  APTT: 16 s
  Bas: 0%
  Eos: 0.8%
  Fbg: 274.2 mg/dL
  Hb: 13.8 g/dL
  Ht: 39.9%
  Lym: 68.2%
  MCH: 21.4 pg
  MCHC: 34.6%
  MCV: 62 fL
  Mono: 2.8%
  Neu: 27.4%
  PT: 12.1 s
  Plat: 125.1 x10_4/uL
  RBC: 643.8 x10_4/ul
  Ret: 7%
  WBC: 83.1 x10_2/uL
  KIDNEY_L: 1 g
  KIDNEY_R: 0.9 g
  KIDNEY_TOTAL: 1.9 g
  LIVER: 8 g
  A/G: 0.9
  ALP: 1612 IU/L
  ALT: 41.8 IU/L
  AST: 70 IU/L
  BUN: 10.8 mg/dL
  CRE: 0.2 mg/dL
  Ca: 11 mg/dL
  Cl: 106.8 meq/L
  DBIL: 0.082 mg/dL
  GLC: 186.8 mg/dL
  IP: 11 mg/dL
  K: 4.1 meq/L
  LDH: 53.4 IU/L
  Na: 142.8 meq/L
  PL: 131.2 mg/dL
  RALB: 2.6 g/dL
  TBIL: 0.054 mg/dL
  TC: 67.6 mg/dL
  TG: 59 mg/dL
  TP: 5.5 g/dL
  gamma-GTP: 1.2 IU/L
[4]
  TERMINAL_BW: 225.5 g
  APTT: 14.8 s
  Bas: 0%
  Eos: 0.6%
  Fbg: 269.6 mg/dL
  Hb: 13.8 g/dL
  Ht: 39.8%
  Lym: 83.4%
  MCH: 21.8 pg
  MCHC: 34.7%
  MCV: 62.9 fL
  Mono: 2.2%
  Neu: 12.8%
  PT: 12.3 s
  Plat: 115.1 x10_4/uL
  RBC: 633.8 x10_4/ul
  Ret: 6.7%
  WBC: 74 x10_2/uL
  KIDNEY_L: 0.9 g
  KIDNEY_R: 0.9 g
  KIDNEY_TOTAL: 1.8 g
  LIVER: 10.4 g
  A/G: 0.9
  ALP: 1796.8 IU/L
  ALT: 43.6 IU/L
  AST: 68.2 IU/L
  BUN: 15.8 mg/dL
  CRE: 0.2 mg/dL
  Ca: 11.3 mg/dL
  Cl: 105 meq/L
  DBIL: 0.072 mg/dL
  GLC: 196.8 mg/dL
  IP: 7.9 mg/dL
  K: 4.1 meq/L
  LDH: 56.4 IU/L
  Na: 141.6 meq/L
  PL: 125.2 mg/dL
  RALB: 2.7 g/dL
  TBIL: 0.04 mg/dL
  TC: 62.6 mg/dL
  TG: 69 mg/dL
  TP: 5.5 g/dL
  gamma-GTP: 1.2 IU/L
[5]
  TERMINAL_BW: 224.5 g
  APTT: 15.3 s
  Bas: 0%
  Eos: 0.4%
  Fbg: 299.8 mg/dL
  Hb: 13.9 g/dL
  Ht: 40.1%
  Lym: 74%
  MCH: 22.2 pg
  MCHC: 34.6%
  MCV: 64.1 fL
  Mono: 3.2%
  Neu: 20.8%
  PT: 12.2 s
  Plat: 122 x10_4/uL
  RBC: 625.6 x10_4/ul
  Ret: 7.4%
  WBC: 74.7 x10_2/uL
  KIDNEY_L: 0.9 g
  KIDNEY_R: 1 g
  KIDNEY_TOTAL: 1.9 g
  LIVER: 9.5 g
  A/G: 0.8
  ALP: 1942.2 IU/L
  ALT: 47 IU/L
  AST: 75.6 IU/L
  BUN: 13 mg/dL
  CRE: 0.2 mg/dL
  Ca: 11.4 mg/dL
  Cl: 104.6 meq/L
  DBIL: 0.2 mg/dL
  GLC: 168 mg/dL
  IP: 9.9 mg/dL
  K: 4.4 meq/L
  LDH: 75.6 IU/L
  Na: 141.2 meq/L
  PL: 188.8 mg/dL
  RALB: 2.7 g/dL
  TBIL: 0.082 mg/dL
  TC: 83.6 mg/dL
  TG: 320 mg/dL
  TP: 5.8 g/dL
  gamma-GTP: 1.2 IU/L
[6]
  TERMINAL_BW: 222.4 g
  APTT: 14.3 s
  Bas: 0%
  Eos: 0.6%
  Fbg: 305.6 mg/dL
  Hb: 13.7 g/dL
  Ht: 40%
  Lym: 77.4%
  MCH: 21 pg
  MCHC: 34.2%
  MCV: 61.3 fL
  Mono: 3.4%
  Neu: 17.8%
  PT: 11.8 s
  Plat: 122.9 x10_4/uL
  RBC: 651.8 x10_4/ul
  Ret: 6.7%
  WBC: 77.1 x10_2/uL
  KIDNEY_L: 0.9 g
  KIDNEY_R: 0.9 g
  KIDNEY_TOTAL: 1.8 g
  LIVER: 8.5 g
  A/G: 0.9
  ALP: 1762.4 IU/L
  ALT: 44.2 IU/L
  AST: 76.2 IU/L
  BUN: 9.8 mg/dL
  CRE: 0.2 mg/dL
  Ca: 11.4 mg/dL
  Cl: 106.4 meq/L
  DBIL: 0.1 mg/dL
  GLC: 171.2 mg/dL
  IP: 10.8 mg/dL
  K: 4.3 meq/L
  LDH: 61.6 IU/L
  Na: 142.6 meq/L
  PL: 171.2 mg/dL
  RALB: 2.7 g/dL
  TBIL: 0.086 mg/dL
  TC: 88.2 mg/dL
  TG: 121 mg/dL
  TP: 5.5 g/dL
  gamma-GTP: 1.2 IU/L
[7]
  TERMINAL_BW: 224.1 g
  APTT: 15 s
  Bas: 0%
  Eos: 0.6%
  Fbg: 306.4 mg/dL
  Hb: 13.7 g/dL
  Ht: 40.2%
  Lym: 75.2%
  MCH: 21.8 pg
  MCHC: 34.1%
  MCV: 64.1 fL
  Mono: 2.4%
  Neu: 21%
  PT: 11.9 s
  Plat: 117.7 x10_4/uL
  RBC: 628 x10_4/ul
  Ret: 7.8%
  WBC: 52.7 x10_2/uL
  KIDNEY_L: 1 g
  KIDNEY_R: 0.9 g
  KIDNEY_TOTAL: 1.9 g
  LIVER: 8.3 g
  A/G: 0.9
  ALP: 1746.4 IU/L
  ALT: 38.8 IU/L
  AST: 68 IU/L
  BUN: 10.6 mg/dL
  CRE: 0.2 mg/dL
  Ca: 11.3 mg/dL
  Cl: 106.2 meq/L
  DBIL: 0.1 mg/dL
  GLC: 177.6 mg/dL
  IP: 11.8 mg/dL
  K: 4.3 meq/L
  LDH: 59.4 IU/L
  Na: 143.2 meq/L
  PL: 143.8 mg/dL
  RALB: 2.7 g/dL
  TBIL: 0.076 mg/dL
  TC: 73.2 mg/dL
  TG: 59.6 mg/dL
  TP: 5.7 g/dL
  gamma-GTP: 1.4 IU/L
[8]
  TERMINAL_BW: 224.7 g
  APTT: 14.7 s
  Bas: 0%
  Eos: 0.8%
  Fbg: 320.4 mg/dL
  Hb: 13.6 g/dL
  Ht: 39.5%
  Lym: 80%
  MCH: 21.5 pg
  MCHC: 34.4%
  MCV: 62.6 fL
  Mono: 3.4%
  Neu: 15.2%
  PT: 12.2 s
  Plat: 102.6 x10_4/uL
  RBC: 631.8 x10_4/ul
  Ret: 6.3%
  WBC: 73.6 x10_2/uL
  KIDNEY_L: 1 g
  KIDNEY_R: 1 g
  KIDNEY_TOTAL: 2 g
  LIVER: 10.9 g
  A/G: 1
  ALP: 2167.4 IU/L
  ALT: 46.4 IU/L
  AST: 74 IU/L
  BUN: 12.8 mg/dL
  CRE: 0.2 mg/dL
  Ca: 11.3 mg/dL
  Cl: 105.6 meq/L
  DBIL: 0.1 mg/dL
  GLC: 189 mg/dL
  IP: 8 mg/dL
  K: 4 meq/L
  LDH: 74.8 IU/L
  Na: 141.8 meq/L
  PL: 124 mg/dL
  RALB: 2.7 g/dL
  TBIL: 0.06 mg/dL
  TC: 63.6 mg/dL
  TG: 67.2 mg/dL
  TP: 5.5 g/dL
  gamma-GTP: 1.2 IU/L
